# Source: patent publication US12419869B2, “Methods of treating multiple sclerosis” (Vanda Pharmaceuticals Inc., priority 2021, dated 2025)
# Legend:
# [1] = Animal studies of blood-brain-barrier passage; assay type: in vivo
# Source text: Ponesimod is highly bound to plasma proteins (>99%) and is mainly (78.5%) distributed in the plasma fraction of whole blood.
# Ames assay = assay type: cell-based; conditions: in vitro
# Source text: Ponesimod was negative in a battery of in vitro (Ames, chromosomal aberration in mammalian cells) and in vivo (micronucleus in rat) assays.
# [2] = test system: adult subjects with relapsing MS; experiment: Fatigue-related symptoms, FSIQ-RMS weekly symptoms score, change from baseline to Week 108; assay type: in vivo, human
# Experimental: (§1) In some embodiments, the patient-reported outcome questionnaire is the symptom domain of the FSIQ-RMS. The FSIQ-RMS symptom domain (FSIQ-RMS-S) consists of seven items assessing fatigue-related symptoms with a recall period of 24 hours measured on an 11-point numeric rating scale; the standardized symptom domain score ranges from 0 to 100 with a higher score indicating greater fatigue. This domain (i.e., section 1 of the questionnaire) is completed on 7 consecutive days.
# The patient-reported outcome questionnaire used for the below Examples is the Fatigue Symptoms and Impact Questionnaire—Relapsing Multiple Sclerosis (FSIQ-RMS). The FSIQ-RMS is an MS specific 20-item PRO measure that comprises 2 domains: one measuring MS symptoms (7 items) and one measuring MS-related impacts (13 items). The 7 symptom items and 13 impact items (in 3 impacts subdomains: physical, cognitive and emotional, and coping) are presented below.
# For the MS symptoms domain, the FSIQ-RMS asks about a patient's fatigue-related symptoms of relapsing MS over the past 24 hours while doing routine daily activities (e.g., housework, yard work, shopping, working, etc.) for Items 1-6 or while at rest (e.g., reading a book, watching TV, etc.) for Item 7. Patients are asked to select a response on a scale of 0 to 10 that best describes their experience and are asked to not skip any questions, with no answers being right or wrong.
# Secondary efficacy variables and testing strategy: Four secondary efficacy endpoints were analyzed as per the statistical testing strategy outlined in FIG. 1. • Change from baseline to Week 108 in fatigue-related symptoms as measured by the symptoms domain of the FSIQ-RMS patient-reported outcome [Fatigue] • Cumulative number of combined unique active lesions from baseline to Week 108 on brain MRI [CUALs] • Time to first 12-week confirmed disability accumulation (CDA) from baseline to EOS on Expanded Disability Status Scale (EDSS) [12-week CDA] • Time to first 24-week CDA from baseline to EOS on EDSS [24-week CDA]
# as §1, with “The” for “In some embodiments, the patient-reported outcome questionnaire is the symptom domain of the FSIQ-RMS. The”
# FSIQ-RMS was completed during the pre-randomization period, at Visits 6, 7, 10, and 12 (Weeks 12, 24, 60, 84), 14 (EOT), and at unscheduled visits due to relapses (R1, R2, etc.) or other unscheduled visits (U1, U2, etc.) as described below. If applicable, FSIQ-RMS was performed at the corresponding visits in the PTOP.
# After randomization, the symptoms domain of the FSIQ-RMS (i.e., section 1 of the questionnaire) was completed by the subject at home on a daily basis, starting in the evening of the day of a visit when the FSIQ-RMS was administered (Day 1 of questionnaire administration cycle) and during the 6 subsequent days (i.e., over 7 days in total). Subjects returned the completed FSIQ-RMS diary at the next scheduled visit. On the seventh day, the subject completed the impact domain of the FSIQ-RMS (i.e., section 2 of the questionnaire). If applicable, at the end of the PTOP, the FSIQ-RMS was completed prior to Visit 14A (Week 108), ideally, during the 7 consecutive days preceding the visit.
# [3] = Week 108, baseline EDSS <3.5 (title: ≤3.5)
# [4] = Week 108, baseline fatigue below the median
# [5] = Week 108, no Gd+ T1 lesions at baseline
# [6] = Week 108, no prior DMT treatment
smiles,measurement,setting,value
"CCC/N=C1\S/C(=C\c2ccc(OC[C@H](O)CO)c(Cl)c2)C(=O)N1c1ccccc1C [Ponesimod, (R)-5-[3-chloro-4-(2,3-dihydroxy-propoxy)-benz[Z]ylidene]-2-([Z]-propylimino)-3-o-tolyl-thiazolidin-4-one]",Blood-brain-barrier passage,[1],readily crosses the blood-brain-barrier
same,Ames assay result,Ames assay,negative
same,"FSIQ-RMS change from baseline to Week 108, mean difference ponesimod vs teriflunomide",[2]; Full Analysis Set,−3.57
same,"Change from baseline to Week 108 in FSIQ-RMS weekly symptoms score (mean, MMRM)","[2]; Full Analysis Set, increase = worsening",−0.01
same,"Change in FSIQ-RMS-S total score: Improved (<−6.3), patients","[2]; Week 108, Full Analysis Set",30.5%
same,"Change in FSIQ-RMS-S total score: Stable (−6.3 < × < +6.3), patients","[2]; Week 108, Full Analysis Set",38.4%
same,"Change in FSIQ-RMS-S total score: Stable or Improved, patients","[2]; Week 108, Full Analysis Set",68.9%
same,"Change in FSIQ-RMS-S total score: Worsened (≥6.3), patients","[2]; Week 108, Full Analysis Set",31.1%
same,"FSIQ-RMS change: Improved (<−6.3), patients",[2]; [3],30.6%
same,"FSIQ-RMS change: Stable (−6.3 < × < +6.3), patients",[2]; [3],40.8%
same,"FSIQ-RMS change: Stable or Improved, patients",[2]; [3],71.4%
same,"FSIQ-RMS change: Worsened (≥6.3), patients",[2]; [3],28.6%
same,"FSIQ-RMS change: Improved (<−6.3), patients",[2]; [4],19.1%
same,"FSIQ-RMS change: Stable (−6.3 < × < +6.3), patients",[2]; [4],45.2%
same,"FSIQ-RMS change: Stable or Improved, patients",[2]; [4],64.4%
same,"FSIQ-RMS change: Worsened (≥6.3), patients",[2]; [4],35.6%
same,"FSIQ-RMS change: Stable (−6.3 < × < +6.3), patients",[2]; [5],37.4%
same,"FSIQ-RMS change: Stable or Improved, patients",[2]; [5],67.5%
same,"FSIQ-RMS change: Worsened (≥6.3), patients",[2]; [5],32.5%
same,"FSIQ-RMS change: Improved (<−6.3), patients",[2]; [6],31.4%
same,"FSIQ-RMS change: Stable (−6.3 < × < +6.3), patients",[2]; [6],44.0%
same,"FSIQ-RMS change: Stable or Improved, patients",[2]; [6],75.4%
same,"FSIQ-RMS change: Worsened (≥6.3), patients",[2]; [6],24.6%
same,"FSIQ-RMS change: Improved (<−6.3), patients","[2]; Week 108, no prior DMT treatment, listed as ponesimod",31.4%
